# Test results: patent USRE45173E1, “Inhibitors of CYP 17” (Novartis AG, priority 2009, dated 2014)
# Legend:
# [1] = target: rat CYP17 lyase (Rattus norvegicus (Rat), UniProt P11715); assay: rat CYP 17 Lyase model, rat testes microsomes as the source; format: biochemical; settings: for IC50: rat testes microsomes, substrate 0.5 μM, read-out: Lyase IC 50 nM Human/Rat (Rat); for inhibition at 0.1 µM: 100 nM compound, read-out: rCYP17 Lyase % Inh @ 100 nM
# Protocol: For routine screening, the assay was set up with 16 μg of enzyme in 50 μL reaction volume. 17α-hydroxy pregnenolone [21-3H] was added to a final concentration of 0.25 μM. NADPH is used at a final concentration of 4.2 mM. Total reaction volume was made up to 50 μL with 50 mM Phosphate buffer pH 7.5. The reaction mixture was incubated at room temperature for 90 minutes with gentle shaking. The reaction was stopped by the addition of 100 μL of buffer. 500 μL of 5% freshly prepared activated charcoal was added to the solution and mixed well by vortexing. The samples were centrifuged at 17568×g for 5 minutes. (14000 rpm). The supernatant was carefully transferred to fresh tube and 1.3 mL of scintillation fluid was added, mixed by vortexing.
# The radioactivity was measured in a 1450 MicroBeta TriLux™ scintillation counter from Wallac-Perkin Elmer®, USA. The measurements were carried out in 2.0 mL Eppendorforf™ tubes. Each tube was counted for 1 minute. The amount of tritiated acetic acid released is proportional to the lyase activity. Percent lyase activity in presence of inhibitor was calculated using the formula given below.
# [formula] • Sample: Enzyme reaction in presence of inhibitor. • Positive control: Enzyme reaction without inhibitor but containing DMSO at 1% final concentration. • Blank-Contains all reagents except enzyme. % Inhibition=100%−% Lyase activity
# For IC50 determination, the % inhibition was plotted as a function of inhibitor concentration. The data was fitted to sigmoidal equation using Graphpad Prism® software IV to generate IC50 values.
# For the rat CYP 17 Lyase Model:
# The same procedure described above was used but using rat testes microsomes as the source and with a substrate concentration of 0.5 μM.
# [2] = target: recombinant human CYP17 enzyme (Homo sapiens (Human), UniProt P05093); assay: Cytochrome P450, 17-20 lyase (CYP17-lyase) assay, tritiated acetic acid release from 17-α-hydroxy pregnenolone [21-3H]; format: biochemical; settings: human CYP17, substrate 0.25 μM; read-out: Lyase IC 50 nM Human/Rat (Human)
# Outline: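 Membranes of cells expressing human CYP17 incubated 90 min at room temperature with [21-3H]17α-hydroxypregnenolone and 4.2 mM NADPH in 50 mM phosphate pH 7.5. Released tritiated acetic acid separated from steroids by charcoal and counted by scintillation; IC50 from sigmoidal fit of % inhibition.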
# recombinant human CYP17 enzyme, sequence (P05093 whole entry): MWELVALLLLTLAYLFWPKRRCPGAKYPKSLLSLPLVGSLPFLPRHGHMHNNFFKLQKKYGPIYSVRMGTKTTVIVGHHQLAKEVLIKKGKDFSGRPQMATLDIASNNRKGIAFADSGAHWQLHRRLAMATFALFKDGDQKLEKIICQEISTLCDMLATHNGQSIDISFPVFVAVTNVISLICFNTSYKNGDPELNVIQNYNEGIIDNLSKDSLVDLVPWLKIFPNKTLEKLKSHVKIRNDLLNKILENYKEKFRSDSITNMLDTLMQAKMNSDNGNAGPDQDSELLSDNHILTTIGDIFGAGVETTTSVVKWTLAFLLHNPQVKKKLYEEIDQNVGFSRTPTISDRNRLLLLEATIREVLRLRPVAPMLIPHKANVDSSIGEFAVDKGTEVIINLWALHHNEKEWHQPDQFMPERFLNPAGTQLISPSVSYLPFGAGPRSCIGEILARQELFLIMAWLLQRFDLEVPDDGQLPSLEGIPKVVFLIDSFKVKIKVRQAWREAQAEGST
# rat CYP17 lyase, sequence (P11715 whole entry): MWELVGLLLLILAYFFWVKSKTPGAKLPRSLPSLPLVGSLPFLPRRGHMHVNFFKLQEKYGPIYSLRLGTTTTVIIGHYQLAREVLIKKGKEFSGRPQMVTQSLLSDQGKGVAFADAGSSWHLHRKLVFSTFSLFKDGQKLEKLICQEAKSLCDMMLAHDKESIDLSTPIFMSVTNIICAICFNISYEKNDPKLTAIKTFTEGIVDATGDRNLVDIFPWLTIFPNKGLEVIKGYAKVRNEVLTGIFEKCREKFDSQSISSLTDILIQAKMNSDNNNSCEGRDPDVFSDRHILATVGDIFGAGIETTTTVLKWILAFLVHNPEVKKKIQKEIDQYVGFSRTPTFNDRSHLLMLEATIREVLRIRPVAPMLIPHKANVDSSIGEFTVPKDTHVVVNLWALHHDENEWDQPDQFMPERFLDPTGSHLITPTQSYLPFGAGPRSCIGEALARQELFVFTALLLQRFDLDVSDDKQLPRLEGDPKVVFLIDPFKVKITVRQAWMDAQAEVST
IC50 [1],IC50 [2],inhibition at 0.1 µM [1],SMILES
3 nM,10 nM,–,"Cc1ccncc1N1CCN(c2ccc(Cl)s2)C1=O [Example 41A, 1-(5-Chloro-thiophen-2-yl)-3-(4-methyl-pyridin-3-yl)-imidazolidin-2-one]"
5 nM,96 nM,97%,"Cc1ccncc1N1CCN(c2ccc3ncccc3c2)C1=O [Example 52A, 1-(4-Methyl-pyridin-3-yl)-3-quinolin-6-yl-imidazolidin-2-one]"
2 nM,17 nM,102%,"Cc1ccncc1N1CCN(c2ccc3ccccc3c2)C1=O [Example 14A, 1-(4-Methyl-pyridin-3-yl)-3-naphthalen-2-yl-imidazolidin-2-one]"
5 nM,6 nM,94%,"Cc1ccncc1N1CCN(c2ccc3ncsc3c2)C1=O [Example 16A, 1-Benzothiazol-6-yl-3-(4-methyl-pyridin-3-yl)-imidazolidin-2-one]"
–,15 nM,100%,"Cc1ccncc1N1CCN(c2cc3ccccc3s2)C1=O [Example 26A, 1-Benzo[b]thiophen-2-yl-3-(4-methyl-pyridin-3-yl)-imidazolidin-2-one]"
7 nM,9 nM,–,"Cc1cccc(N2CCN(c3cnccc3C)C2=O)c1 [Example 55A, 1-(4-Methyl-pyridin-3-yl)-3-m-tolyl-imidazolidin-2-one]"
5 nM,7.5 nM,–,"Cc1ccncc1N1CCN(c2ccc3c(C)n[nH]c3c2)C1=O [Example 102A, 1-(3-Methyl-1H-indazol-6-yl)-3-(4-methyl-pyridin-3-yl)-imidazolidin-2-one]"
12 nM,23 nM,–,"COc1ccncc1N1CCN(c2ccc3ncsc3c2)C1=O [Example 124A, 1-Benzothiazol-6-yl-3-(4-methoxy-pyridin-3-yl)-imidazolidin-2-one]"
–,72 nM,98%,"Cc1ccncc1N1CCN(c2cnc3ccccc3c2)C1=O [Example 24A, 1-(4-Methyl-pyridin-3-yl)-3-quinolin-3-yl-imidazolidin-2-one]"
